# Reference: patent US11135186B2, “Regulators of the endoplasmic reticulum proteostasis network” (The Scripps Research Institute, priority 2015, dated 2021)
# Columns and labels:
# [1] = system: GFP-ATF6 in U2OS-GFP-ATF6 cells; assay: ATF6 nuclear localization, high-content imaging; format: cell-based; details: 10 μM, 5 h
# Experimental: 300 μL of 1.375×10^4 U2OS-GFP-ATF6 cells per ml were plated per well in 96 well imaging plate (ibidi 89626) and sealed with breathable seals (E&K Scientific T896100) two days prior to drug addition. Immediately prior to addition to cells, compounds were diluted to 6× in media from 500×DMSO stock and 60 μL 6× was added to cells for 1× final (0.2% DMSO).
# After 5h, media was removed and cells were fixed in 4% PFA (Electron Microscopy Sciences 15714) in PHEM buffer (60 mM PIPES, 25 mM HEPES, 10 mM EGTA, 2 mM MgCl2-hexahydrate, pH 6.9) for 15 minutes at RT. […]
# Images were analyzed using CellProfiler^7, MATLAB R2014a and GraphPad Prism 5. […] The ratio of the GFP intensity in the nucleus versus the ER was calculated for each cell and plotted as a histogram per well. A threshold for the minimum ratio of nuclear to ER signal corresponding to an activated (i.e. nuclear localized ATF6) cell was calculated as the minimum nuclear: ER ratio greater than 1 where the number of ER stressed cells (Tg) was greater than the corresponding unstressed control. Percent activation per well was calculated as the percentage of cells per well with a nuclear: ER ratio greater than the calculated threshold for that plate. […]
# [2] = system: ALLC (amyloidogenic light chain); assay: ALLC secretion from ALMC-2 cells after cycloheximide administration; format: cell-based, human; details: absence of new protein synthesis
# [3] = system: ERSE-FLuc reporter (ATF6 arm of the UPR); assay: ERSE-FLuc reporter, 96-well, HEK293T-Rex cells (SAR and S1P inhibition); format: cell-based; details: HEK293T-Rex; 10 μM
# Experimental: HEK293T-Rex cells incorporating the ERSE-FLuc reporter and HEK293^DAX cells were plated approximately 20,000 cells/well in flat-bottomed, black 96-well assay plates (Costar, Corning, Inc.) overnight prior to compound administration. Cells were treated with compounds as described for 12-18 h then the plates were equilibrated to room temperature and 50 μL of SteadyLite (PerkinElmer) was added to each well. Luminescence activity was measured in a Safire II microplate reader with a 1000 ms integration time.
SMILES,nuclear fraction of ATF6-GFP (ATF6 nuclear translocation) [1],reduction in ALLC secretion after cycloheximide [2] [%],ERSE reporter activity relative to 263 [3]
Cc1ccc(O)c(N/C=C/C(=O)c2ccc(F)cc2)c1 [Compound 132],significantly increased,–,–
Cc1ccc(O)c(NC(=O)CCc2ccccc2)c1 [Compound 147],–,~30,–
O=[N+]([O-])c1ccc(N/N=C/c2ccccc2O)cc1 [Compound 263],significantly increased,–,slightly increase
